According to ChEMBL document CHEMBL5325471, “Identification of new modulator of DNA repairing pathways based on natural product (±)-peharmaline A” (Bioorg Med Chem, 2023):
Activity calls are given as the source filed them. The rule behind the calls is not given here.

Tests used:
MCF7 = experiment: Antiproliferative activity against human MCF7 cells assessed as cell growth inhibition incubated for 44 hrs by MTT assay; format: functional, cell-based; details: MCF7, 44 h
[1] = Cytotoxicity against human fR2 cells assessed as cell growth inhibition incubated for 44 hrs by MTT assay; format: toxicity, cell-based
[2] = Elimination half life in BALB/c mouse at 20 mg/kg, ip measured upto 24 hrs by LC-MS/MS analysis; format: ADME, organism-based; details: in vivo, read-out: beta t1/2 (converted)
[3] = AUC (0 to t) in BALB/c mouse at 20 mg/kg, ip measured upto 24 hrs by LC-MS/MS analysis; format: ADME, organism-based; design: time < 24 hrs, dose 20 mg/kg, route ip; details: in vivo
[4] = AUC (0 to infinity) in BALB/c mouse at 20 mg/kg, ip measured upto 24 hrs by LC-MS/MS analysis; format: ADME, organism-based; design: dose 20 mg/kg, time < 24 hrs, route ip; details: in vivo
[5] = Volume of distribution in BALB/c mouse at 20 mg/kg, ip measured upto 24 hrs by LC-MS/MS analysis; format: ADME, organism-based; details: in vivo
[6] = Clearance in BALB/c mouse at 20 mg/kg, ip measured upto 24 hrs by LC-MS/MS analysis; format: ADME, organism-based; details: in vivo
HCT-116 [7] = experiment: Induction of DNA damage in human HCT-116 cell assessed as increase in olive tail moment at 0.5 uM incubated for 24 hrs by EtBr-based alkaline Comet assay (Rvb= 0.26%); format: functional
HCT-116 [8] = experiment: Induction of cell cycle arrest in human HCT-116 cells assessed as accumulation of cells at G1 phase at 0.5 uM incubated for 24 hrs by RNase/PI staining-based FACS flow cytometry analysis (reference value: 51 %); format: functional
HCT-116 [9] = experiment: Induction of cell cycle arrest in human HCT-116 cells assessed as accumulation of cells at G1 phase at 1 uM incubated for 24 hrs by RNase/PI staining-based FACS flow cytometry analysis (reference value: 51 %); format: functional
HCT-116 [10] = experiment: Induction of cell cycle arrest in human HCT-116 cells assessed as accumulation of cells at G1 phase at 2 uM incubated for 24 hrs by RNase/PI staining-based FACS flow cytometry analysis (reference value: 51 %); format: functional
HCT-116 [11] = experiment: Induction of cell cycle arrest in human HCT-116 cells assessed as accumulation of cells at G2 phase at 0.5 uM incubated for 24 hrs by RNase/PI staining-based FACS flow cytometry analysis (reference value: 33 %); format: functional
HCT-116 [12] = experiment: Induction of cell cycle arrest in human HCT-116 cells assessed as accumulation of cells at S phase at 0.5 uM incubated for 24 hrs by RNase/PI staining-based FACS flow cytometry analysis (reference value: 11 %); format: functional
HCT-116 [13] = experiment: Induction of cell cycle arrest in human HCT-116 cells assessed as accumulation of cells at S phase at 1 uM incubated for 24 hrs by RNase/PI staining-based FACS flow cytometry analysis (reference value: 11 %); format: functional
HCT-116 [14] = experiment: Induction of cell cycle arrest in human HCT-116 cells assessed as accumulation of cells at S phase at 2 uM incubated for 24 hrs by RNase/PI staining-based FACS flow cytometry analysis (reference value: 11 %); format: functional
HCT-116 [15] = experiment: Induction of cell cycle arrest in human HCT-116 cells assessed as accumulation of cells at G2 phase at 1 uM incubated for 24 hrs by RNase/PI staining-based FACS flow cytometry analysis (reference value: 33 %); format: functional
HCT-116 [16] = experiment: Induction of cell cycle arrest in human HCT-116 cells assessed as accumulation of cells at G2 phase at 2 uM incubated for 24 hrs by RNase/PI staining-based FACS flow cytometry analysis (reference value: 33 %); format: functional
HCT-116 [17] = experiment: Induction of DNA damage in human HCT-116 cells assessed as increase in phosphorylated gamma-H2AX foci formation at 0.5 to 2 uM incubated for 24 hrs by DAPI staining based immunofluorescence analysis; format: functional, cell-based; details: dose 0.5-2 µM
HCT-116 [18] = experiment: Induction of DNA damage in human HCT-116 cells assessed as micronuclei formation at 0.5 to 2 uM incubated for 24 hrs by DAPI staining based immunofluorescence analysis; format: functional, cell-based; details: dose 0.5-2 µM
HCT-116 [19] = experiment: Inhibition of DNA repairing pathway in human HCT-116 cells assessed as downregulation of Rad51 protein expression at 0.25 to 2 uM incubated for 24 hrs by immunoblotting analysis; format: functional, cell-based; details: dose 0.25-2 µM
HCT-116 [20] = experiment: Inhibition of DNA repairing pathway in human HCT-116 cells assessed as downregulation of XRCC11 protein expression at 0.25 to 2 uM incubated for 24 hrs by immunoblotting analysis; format: functional, cell-based; details: dose 0.25-2 µM
HCT-116 [21] = experiment: Inhibition of DNA repairing pathway in human HCT-116 cells assessed as downregulation of H2AX protein expression at 0.25 to 2 uM incubated for 24 hrs by immunoblotting analysis; format: functional, cell-based; details: dose 0.25-2 µM
HCT-116 [22] = experiment: Induction of DNA double-strand breaks in human HCT-116 cells assessed as increase in gammaH2AX accumulation at 0.25 to 2 uM incubated for 24 hrs by immunoblotting analysis; format: functional, cell-based; details: dose 0.25-2 µM
HCT-116 [23] = experiment: Inhibition of epithelial-to-mesenchymal transition in human HCT-116 cells assessed as downregulation of Twist-1 protein expression by immunoblot analysis; format: functional, cell-based
4T1 [24] = experiment: Antitumor activity against mouse 4T1 cells implanted in BALB/c mouse assessed as reduction in tumor weight at 20 mg/kg, ip administered every alternate day for 2 weeks relative to control; format: functional; design: scale not given: the % may be the effect or the level left
4T1 [25] = experiment: Antitumor activity against mouse 4T1 cells implanted in BALB/c mouse assessed as reduction in tumor volume at 20 mg/kg, ip administered every alternate day for 2 weeks relative to control; format: functional; design: scale not given: the % may be the effect or the level left
HCT-116 [26] = experiment: Induction of DNA damage in human HCT-116 cell assessed as increase in olive tail moment at 1 uM incubated for 24 hrs by EtBr-based alkaline Comet assay (Rvb= 0.26%); format: functional
HCT-116 [27] = experiment: Induction of DNA damage in human HCT-116 cell assessed as increase in olive tail moment at 2 uM incubated for 24 hrs by EtBr-based alkaline Comet assay (Rvb= 0.26%); format: functional
HCT-116 [28] = experiment: Induction of DNA damage in human HCT-116 cell assessed as increase in olive tail moment at 4 uM incubated for 24 hrs by EtBr-based alkaline Comet assay (Rvb= 0.26%); format: functional
HCT-116 [29] = experiment: Induction of DNA damage in human HCT-116 cell assessed as comet tail formation at 2 uM incubated for 24 hrs by EtBr-based alkaline Comet assay (Rvb= 2.99 %); format: functional
HCT-116 [30] = experiment: Induction of DNA damage in human HCT-116 cell assessed as comet tail formation at 4 uM incubated for 24 hrs by EtBr-based alkaline Comet assay (Rvb= 2.99 %); format: functional
[31] = Drug exposure in BALB/c mouse plasma at 20 mg/kg, ip measured upto 24 hrs by LC-MS/MS analysis; format: ADME, organism-based; design: dose 20 mg/kg, time < 24 hrs, route ip
HCT-116 [32] = experiment: Inhibition of DNA repairing pathway in human HCT-116 cells assessed as increase in cleaved PARP level at 0.25 to 2 uM incubated for 24 hrs by immunoblotting analysis; format: functional, cell-based; details: dose 0.25-2 µM
HCT-116 [33] = experiment: Inhibition of DNA repairing pathway in human HCT-116 cells assessed as increase in p-Chk2 level at 0.25 to 2 uM incubated for 24 hrs by immunoblotting analysis; format: functional, cell-based; details: dose 0.25-2 µM

SMILES: COC(=O)[C@]1([C@H]2CCn3c2nc2ccccc2c3=O)NCCc2c1[nH]c1ccccc21 (racemic)
- IC50 (MCF7): 1410 nM
- IC50 at 44 h [1]: 19.7 µM
- half-life [2]: 96 min
- AUC(0-t) at 24 h [3]: 11000 ng·h/mL
- AUC(0-inf) [4]: 11200 ng·h/mL
- Vd [5]: 4.4 L/kg
- CL/F [6]: 30 mL/min/kg
- Activity (HCT-116 [7]): 5.21%
- Activity (HCT-116 [8]): 66%
- Activity (HCT-116 [9]): 71%
- Activity (HCT-116 [10]): 74%
- Activity (HCT-116 [11]): 24%
- Activity (HCT-116 [12]): 7%
- Activity (HCT-116 [13]): 7%
- Activity (HCT-116 [14]): 4%
- Activity (HCT-116 [15]): 17%
- Activity (HCT-116 [16]): 21%
- Activity (HCT-116 [17]): Active
- Activity (HCT-116 [18]): Active
- inhibition (HCT-116 [19]): Active
- inhibition (HCT-116 [20]): Active
- inhibition (HCT-116 [21]): Active
- Activity (HCT-116 [22]): Active
- inhibition (HCT-116 [23]): Active
- Activity (4T1 [24]): 63%
- Activity (4T1 [25]): 89.3%
- Activity (HCT-116 [26]): 9.53%
- Activity (HCT-116 [27]): 14.05%
- Activity (HCT-116 [28]): 24.72%
- Activity (HCT-116 [29]): 51.03%
- Activity (HCT-116 [30]): 61.4%
- AUC at 24 h [31]: > 25 µM·h
- inhibition (HCT-116 [32]): Active
- inhibition (HCT-116 [33]): Active
